# From PubChem BioAssay (NCI)
#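 Growth conditions: 96-well plates. Treatment: test compound, 48 hours, 5 concentrations. Analysis: linear interpolation between bracketing concentrations; unreached endpoints set to highest concentration. TGI: concentration producing complete growth inhibition.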
# What was measured:
# Test in all cases: NCI tumour cell line growth inhibition, 48 h
# SW-620 colon = tested on: SW-620 colon
# NCI-H23 lung = tested on: NCI-H23 lung
# U251 CNS = tested on: U251 CNS
# OVCAR-3 ovarian = tested on: OVCAR-3 ovarian
# OVCAR-8 ovarian = tested on: OVCAR-8 ovarian
# 786-0 renal = tested on: 786-0 renal
# SNB-78 CNS = tested on: SNB-78 CNS
# K-562 leukemia = tested on: K-562 leukemia
# SK-MEL-5 melanoma = tested on: SK-MEL-5 melanoma
# RXF 393 renal = tested on: RXF 393 renal
# NCI-H460 lung = tested on: NCI-H460 lung
# HL-60(TB) leukemia = tested on: HL-60(TB) leukemia
# HT29 colon = tested on: HT29 colon
# HCT-116 colon = tested on: HCT-116 colon
# COLO 205 colon = tested on: COLO 205 colon
# HOP-18 NSCLC = tested on: HOP-18 NSCLC
# DMS 114 small cell lung = tested on: DMS 114 small cell lung
# SF-268 CNS = tested on: SF-268 CNS
# KM20L2 colon = tested on: KM20L2 colon
# HOP-62 NSCLC = tested on: HOP-62 NSCLC
# A549 NSCLC = tested on: A549 NSCLC
# SNB-19 CNS = tested on: SNB-19 CNS
# CCRF-CEM leukemia = tested on: CCRF-CEM leukemia
# DMS 273 small cell lung = tested on: DMS 273 small cell lung
# TK-10 renal = tested on: TK-10 renal
# RPMI-8226 leukemia = tested on: RPMI-8226 leukemia
# M19-MEL melanoma = tested on: M19-MEL melanoma
# NCI-H226 lung = tested on: NCI-H226 lung
# HCC-2998 colon = tested on: HCC-2998 colon
# SF-539 CNS = tested on: SF-539 CNS
# SN12C renal = tested on: SN12C renal
# LOX IMVI melanoma = tested on: LOX IMVI melanoma
# SK-OV-3 ovarian = tested on: SK-OV-3 ovarian
# M14 melanoma = tested on: M14 melanoma
# KM12 colon = tested on: KM12 colon
# NCI-H522 lung = tested on: NCI-H522 lung
# DLD-1 colon = tested on: DLD-1 colon
# MOLT-4 leukemia = tested on: MOLT-4 leukemia
# OVCAR-4 ovarian = tested on: OVCAR-4 ovarian
# SK-MEL-28 melanoma = tested on: SK-MEL-28 melanoma
# XF 498 CNS = tested on: XF 498 CNS
# SNB-75 CNS = tested on: SNB-75 CNS
# SF-295 CNS = tested on: SF-295 CNS
# LXFL 529 NSCLC = tested on: LXFL 529 NSCLC
# IGROV1 ovarian = tested on: IGROV1 ovarian
# UACC-62 melanoma = tested on: UACC-62 melanoma
# MALME-3M melanoma = tested on: MALME-3M melanoma
# P388 leukemia = tested on: P388 leukemia
# MCF7 breast = tested on: MCF7 breast
# UO-31 renal = tested on: UO-31 renal
# NCI/ADR-RES ovarian = tested on: NCI/ADR-RES ovarian
# CAKI-1 renal = tested on: CAKI-1 renal
# SN12K1 renal = tested on: SN12K1 renal
# HCT-15 colon = tested on: HCT-15 colon
# OVCAR-5 ovarian = tested on: OVCAR-5 ovarian
# A498 renal = tested on: A498 renal
# UACC-257 melanoma = tested on: UACC-257 melanoma
# SK-MEL-2 melanoma = tested on: SK-MEL-2 melanoma
# HOP-92 NSCLC = tested on: HOP-92 NSCLC
# EKVX NSCLC = tested on: EKVX NSCLC
# P388/ADR leukemia = tested on: P388/ADR leukemia
compound,measurement,setting,value
CC1CC#CCOC(=O)CCCC1=O (configuration not stated),TGI,SW-620 colon,> 100000 nM
same,TGI,NCI-H23 lung,> 100 µM
same,TGI,U251 CNS,> 100 µM
same,TGI,OVCAR-3 ovarian,> 100 µM
same,TGI,OVCAR-8 ovarian,> 100 µM
same,TGI,786-0 renal,> 100 µM
same,TGI,SNB-78 CNS,> 100 µM
same,TGI,K-562 leukemia,> 100 µM
same,TGI,SK-MEL-5 melanoma,> 100 µM
same,TGI,RXF 393 renal,> 100 µM
same,TGI,NCI-H460 lung,> 100000 nM
same,TGI,HL-60(TB) leukemia,> 100000 nM
same,TGI,HT29 colon,> 100000 nM
same,TGI,HCT-116 colon,> 100000 nM
same,TGI,COLO 205 colon,> 100000 nM
same,TGI,HOP-18 NSCLC,> 100 µM
same,TGI,DMS 114 small cell lung,> 100000 nM
same,TGI,SF-268 CNS,> 100000 nM
same,TGI,KM20L2 colon,> 100 µM
same,TGI,HOP-62 NSCLC,> 100 µM
same,TGI,A549 NSCLC,> 100 µM
same,TGI,SNB-19 CNS,> 100 µM
same,TGI,CCRF-CEM leukemia,> 100 µM
same,TGI,DMS 273 small cell lung,> 100000 nM
same,TGI,TK-10 renal,> 100 µM
same,TGI,RPMI-8226 leukemia,> 100 µM
same,TGI,M19-MEL melanoma,> 100 µM
same,TGI,NCI-H226 lung,> 100 µM
same,TGI,HCC-2998 colon,> 100000 nM
same,TGI,SF-539 CNS,> 100000 nM
same,TGI,SN12C renal,> 100 µM
same,TGI,LOX IMVI melanoma,> 100000 nM
same,TGI,SK-OV-3 ovarian,> 100 µM
same,TGI,M14 melanoma,> 100 µM
same,TGI,KM12 colon,> 100 µM
same,TGI,NCI-H522 lung,> 100 µM
same,TGI,DLD-1 colon,> 100000 nM
same,TGI,MOLT-4 leukemia,> 100 µM
same,TGI,OVCAR-4 ovarian,> 100000 nM
same,TGI,SK-MEL-28 melanoma,> 100 µM
same,TGI,XF 498 CNS,> 100 µM
same,TGI,SNB-75 CNS,> 100000 nM
same,TGI,SF-295 CNS,> 100 µM
same,TGI,LXFL 529 NSCLC,> 100 µM
same,TGI,IGROV1 ovarian,> 100 µM
same,TGI,UACC-62 melanoma,> 100000 nM
OCC1OC(n2cnc3cncnc32)C(O)C1O (configuration not stated),TGI,SW-620 colon,1840 nM
same,TGI,MALME-3M melanoma,4.73 µM
same,TGI,NCI-H23 lung,3.68 µM
same,TGI,U251 CNS,4.58 µM
same,TGI,P388 leukemia,1590 nM
same,TGI,OVCAR-3 ovarian,4.94 µM
same,TGI,OVCAR-8 ovarian,3.17 µM
same,TGI,MCF7 breast,2150 nM
same,TGI,SNB-78 CNS,39.1 µM
same,TGI,K-562 leukemia,9.77 µM
same,TGI,SK-MEL-5 melanoma,3.25 µM
same,TGI,RXF 393 renal,3.9 µM
same,TGI,NCI-H460 lung,1490 nM
same,TGI,HL-60(TB) leukemia,1730 nM
same,TGI,HT29 colon,2890 nM
same,TGI,UO-31 renal,6.84 µM
same,TGI,NCI/ADR-RES ovarian,2250 nM
same,TGI,CAKI-1 renal,2680 nM
same,TGI,SN12K1 renal,3.49 µM
same,TGI,HCT-116 colon,1230 nM
same,TGI,HCT-15 colon,2080 nM
same,TGI,OVCAR-5 ovarian,4.02 µM
same,TGI,COLO 205 colon,1700 nM
same,TGI,HOP-18 NSCLC,8.15 µM
same,TGI,DMS 114 small cell lung,2570 nM
same,TGI,SF-268 CNS,2980 nM
same,TGI,A498 renal,3.69 µM
same,TGI,KM20L2 colon,5.17 µM
same,TGI,HOP-62 NSCLC,6.84 µM
same,TGI,A549 NSCLC,5.8 µM
same,TGI,SNB-19 CNS,4.27 µM
same,TGI,UACC-257 melanoma,3.75 µM
same,TGI,CCRF-CEM leukemia,> 26.1 µM
same,TGI,DMS 273 small cell lung,2380 nM
same,TGI,RPMI-8226 leukemia,7.95 µM
same,TGI,M19-MEL melanoma,14.1 µM
same,TGI,NCI-H226 lung,3.33 µM
same,TGI,SK-MEL-2 melanoma,3.41 µM
same,TGI,HCC-2998 colon,2840 nM
same,TGI,SF-539 CNS,2940 nM
same,TGI,SN12C renal,3.97 µM
same,TGI,LOX IMVI melanoma,2460 nM
same,TGI,SK-OV-3 ovarian,5.16 µM
same,TGI,KM12 colon,6 µM
same,TGI,HOP-92 NSCLC,4.21 µM
same,TGI,NCI-H522 lung,5.42 µM
same,TGI,DLD-1 colon,1820 nM
same,TGI,MOLT-4 leukemia,5.29 µM
same,TGI,EKVX NSCLC,4.18 µM
same,TGI,OVCAR-4 ovarian,2630 nM
same,TGI,SK-MEL-28 melanoma,5.23 µM
same,TGI,SNB-75 CNS,2150 nM
same,TGI,P388/ADR leukemia,1460 nM
same,TGI,SF-295 CNS,8.32 µM
same,TGI,IGROV1 ovarian,4.81 µM
same,TGI,UACC-62 melanoma,2460 nM
